pKd: −log10 of the molar value. Read-outs that look alike come from different tables or passages of the source.

The text below walks through data of patent US20200385406A1 (priority 2017, published 2020).

Test [1] concerns HIV-1 NL4-3. Nature of the test: HIV-1 infectivity assay in TZM-bl reporter cells. The test is classed as cell-based. The conditions noted are these: for inhibition at 3 µM: Human immunodeficiency virus 1, NL43, TZM-bl, read-out: % Inhibition of HIV-1 Infectivity at 3 μM relative to ΔNef. How it is done: The antiretroviral activity of Nef inhibitor analogs was assessed using the reporter cell line, TZM-bl, which are HeLa cells engineered to express CD4, HIV-1 co-receptors, as well as an HIV-1 LTR-luciferase reporter gene. TZM-bl cells (2.5×10^4) were plated in 96-well plates and allowed to adhere overnight prior to infection. Adherent cells and HIV-1NL4-3 (typically 5,000 pg p24/ml) were then incubated separately with compounds for 3 h and combined in a final volume of 200 μl in each well. Following incubation for 48 h at 37° C., the cells were lysed in 50 μl luciferase cell culture lysis reagent (Promega). Lysates (40 μl) were then transferred to white 96-well plates followed by 50 μl injections of luciferase reagent per well (Promega). Luminescence was then recorded with a delay time of 2 s and an integration period of 10 s. Cytotoxicity of each compound in the absence of HIV-1 was evaluated in TZM-bl cells using the CellTiter-Blue cell viability assay (Promega).

Test [2] concerns the target T1, HIV-1 Nef NL4-3 (Human immunodeficiency virus type 1 group M subtype B, UniProt P03406, A33V/T15A/T51N/V11I).
T1 construct: Full-length recombinant Nef proteins (HIV-1 Nef-SF2, HIV-1 Nef NL4-3 and SIV Nef-mac239) were expressed in E. coli; His-6 (N); made in house; host or cells: E. coli
Nature of the test: SPR binding to recombinant purified Nef protein. How it is done: (§1) Interaction of inhibitor analogs with recombinant purified Nef proteins was performed using an SPR-based binding assay on a Reichert 4-channel SPR instrument. Full-length recombinant Nef proteins (HIV-1 Nef-SF2, HIV-1 Nef NL4-3 and SIV Nef-mac239) were expressed in E. coli and purified via N-terminal His-6 tags, ion-exchange chromatography, and gel filtration. Purity and identity of the Nef proteins was confirmed by SDS-PAGE and mass spectrometry. For SPR, Nef proteins were immobilized on carboxymethyl dextran biosensor chips (Reichert) in HBS-EP running buffer (10 mM HEPES, pH 7.4, 150 mM NaCl, 3 mM EDTA, 0.05% v/v Surfactant P20). Test compounds were injected in triplicate over a range of concentrations (typically 0.1 to 30 μM) at a rate of 10 μL/min for one min until equilibrium was reached, followed by dissociation in HBS-EP for 2 min. Kinetic rate constants were calculated from reference-corrected sensorgrams using the TraceDrawer software package (Reichert), and were best fit via 1:1 Langmuir or 2-step induced-fit binding models. Some initial SPR experiments were performed on a BIAcore T100 instrument (GE Healthcare) using four-channel CM5 biosensor chips, and ligand-protein interactions were best-fit using the BIAevaluations software (version 2.0.4).
A general note: In SPR one partner is held on a chip, and binding of the other changes the refractive index at the surface.

Test [3] deals with T2, HIV-1 Nef-SF2 (Human immunodeficiency virus type 1 group M subtype B, UniProt P03407).
T2 construct: Full-length recombinant Nef proteins (HIV-1 Nef-SF2, HIV-1 Nef NL4-3 and SIV Nef-mac239) were expressed in E. coli; His-6 (N); made in house; host or cells: E. coli
Nature of the test: SPR binding to recombinant purified Nef protein. On the procedure:
as §1

Test [4] concerns the target SIV Nef-mac239 (Simian immunodeficiency virus, UniProt Q5QGG3). Nature of the test: SPR binding to recombinant purified Nef protein. On the procedure:
as §1

[5] abbreviates: SPR, Reichert 4-Channel instrument, N/I = No Interaction up to 1 μM.
Where [6] appears, read: HIV-1 Nef-SF2, KD, Biacore T100 instrument.
Where [7] appears, read: Reichert 4-Channel instrument, N/I = No Interaction up to 1 μM.
The mark [8] stands for this setting: HIV-1 Nef-SF2, KD, Reichert 4-Channel instrument, N/I = No Interaction up to 1 μM.

`O=C(Nc1ccc(Cl)cc1)c1cc(-n2sc3ncccc3c2=O)ccc1Cl` [Compound 7, 2-chloro-N-(4-chlorophenyl)-5-(3-oxoisothiazolo[5,4-b]pyridin-2(3H)-yl)benzamide]: in test [1], the inhibition at 3 µM is 58%. Besides, the pKd was 6.72 in test [2], 6.92 in test [3] (setting [6]) and 6.55 in test [4]. Moreover, the “HIV-1 Nef-NL43, KD” value in test [2] (setting [5]) is reported as “N/I”. For the same compound, the “HIV-1 Nef-SF2, KD” value in test [3] (setting [7]) is recorded as “N/I”. Further, the “SIV Nef-mac239, KD” value in test [4] (setting [5]) is given as “N/I”.

`O=C(c1cc(-n2sc3ncccc3c2=O)ccc1Cl)N1CCC(F)(F)CC1` [Compound 16]: the inhibition at 3 µM in test [1] turned out to be 60%. In addition, the pKd in test [2] is 4.25; in test [3] (setting [8]), 5.03; in test [4], 4.68.

As to `O=C(c1cc(-n2sc3ncccc3c2=O)ccc1Cl)N1CCCC1` [Compound 12, 2-(4-chloro-3-(pyrrolidine-1-carbonyl)phenyl)isothiazolo[5,4-b]pyridin-3(2H)-one], in test [1], the inhibition at 3 µM turned out to be 100%. Moreover, the pKd in test [2] was 6.02; in test [3] (setting [8]) it was 5.77; in test [4], 5.44.

Regarding “2-(2-methyl-5-(morpholine-4-carbonyl)phenyl)isothiazolo[5,4-b]pyridin-3(2H)-one [Compound 15]”, the “% Inhibition of HIV-1 Infectivity at 3 μM relative to ΔNef” value in test [1] (3 μM, TZM-bl reporter cells infected with HIV-1 NL4-3) is reported as 81%. In addition, the pKd in test [2] (SPR, Reichert 4-Channel instrument, N/I = No Interaction up to 1 μM, read-out: HIV-1 Nef-NL43, KD) is 6.85; in test [3] (Reichert 4-Channel instrument, N/I = No Interaction up to 1 μM, read-out: HIV-1 Nef-SF2, KD), 6.41; in test [4] (SPR, Reichert 4-Channel instrument, N/I = No Interaction up to 1 μM, read-out: SIV Nef-mac239, KD), 5.89.

Consider `O=C(c1cc(-n2sc3ncccc3c2=O)ccc1F)N1CCOCC1` [Compound 1, 2-(4-fluoro-3-(morpholine-4-carbonyl)phenyl)isothiazolo[5,4-b]pyridin-3(2H)-one], for which the inhibition at 3 µM in test [1] was found to be 84%. Moreover, in test [3] (setting [6]), the pKd is 5.99.

With `Cc1ccc2c(=O)n(-c3ccc(F)c(C(=O)N4CCOCC4)c3)sc2n1` [Compound 2, 2-(4-fluoro-3-(morpholine-4-carbonyl)phenyl)-6-methylisothiazolo[5,4-b]pyridin-3(2H)-one], the inhibition at 3 µM in test [1] worked out at 52%. In addition, in test [3] (setting [6]), the pKd was 6.30.

Take `O=C(c1cc(-n2sc3nc(C(F)(F)F)ccc3c2=O)ccc1Cl)N1CCOCC1` [Compound 8, 2-(4-chloro-3-(morpholine-4-carbonyl)phenyl)-6-(trifluoromethyl)isothiazolo[5,4-b]pyridin-3(2H)-one]: the inhibition at 3 µM in test [1] amounted to 71%. For the same compound, the pKd in test [2] was 6.51; in test [3] (setting [6]), 6.96; in test [3] (setting [8]), 5.63; in test [4], 6.11. The “HIV-1 Nef-NL43, KD” value in test [2] (setting [5]) is listed as “N/I”. Besides, the “SIV Nef-mac239, KD” value in test [4] (setting [5]) is given as “N/I”.

With `Cc1ccc2c(=O)n(-c3ccc(Cl)c(C(=O)N4CCOCC4)c3)sc2n1` [Compound 3, 2-(4-chloro-3-(morpholine-4-carbonyl)phenyl)-6-methylisothiazolo[5,4-b]pyridin-3(2H)-one], in test [1], the inhibition at 3 µM came out at 23%. For the same compound, the pKd in test [3] (setting [6]) is 6.06.

As to `O=C(c1cc(N2Cc3ncccc3C2=O)ccc1Cl)N1CCOCC1` [Compound 17, 6-(4-chloro-3-(morpholine-4-carbonyl)phenyl)-6,7-dihydro-5H-pyrrolo[3,4-b]pyridin-5-one], the inhibition at 3 µM in test [1] amounted to 16%. In test [2] (setting [5]), the “HIV-1 Nef-NL43, KD” value is reported as “N/I”. Moreover, the “HIV-1 Nef-SF2, KD” value in test [3] (setting [7]) is “N/I”. In test [4] (setting [5]), the “SIV Nef-mac239, KD” value is reported as “N/I”.

For `Cc1ccc2c(=O)n(-c3ccc(C)c(S(=O)(=O)N4CCCC4)c3)sc2n1` [Compound 4, 6-methyl-2-(4-methyl-3-(pyrrolidin-1-ylsulfonyl)phenyl)isothiazolo[5,4-b]pyridin-3(2H)-one], the inhibition at 3 µM in test [1] came to 32%. Besides, in test [3] (setting [6]), the pKd was 6.59.

In the case of `O=C(c1cc(-n2sc3ncccc3c2=O)ccc1Cl)N1CCCCC1` [Compound 14, 2-(4-chloro-3-(piperidine-1-carbonyl)phenyl)isothiazolo[5,4-b]pyridin-3(2H)-one], the inhibition at 3 µM in test [1] was 82%. Besides, the pKd in test [2] was 5.75; in test [3] (setting [8]), 5.85; in test [4], 5.51.

As to `Cc1ccc(-n2sc3ncccc3c2=O)cc1S(=O)(=O)N1CCCC1` [Compound 6, 2-(4-methyl-3-(pyrrolidin-1-ylsulfonyl)phenyl)isothiazolo[5,4-b]pyridin-3(2H)-one], the inhibition at 3 µM in test [1] was determined as 28%. For the same compound, the pKd in test [2] was 5.06; in test [3] (setting [8]), 5.62; in test [4], 5.80.

In the case of `CC1CN(C(=O)c2cc(-n3sc4ncccc4c3=O)ccc2Cl)CC(C)O1` (stereo not drawn) [Compound 13, 2-(4-chloro-3-(2,6-dimethylmorpholine-4-carbonyl)phenyl)isothiazolo[5,4-b]pyridin-3(2H)-one], in test [1], the inhibition at 3 µM is 100%. Also, the pKd is 6.23 in test [2], 6.42 in test [3] (setting [8]) and 5.85 in test [4].

For the compound `O=C(c1cc(-n2sc3ncccc3c2=O)ccc1Cl)N1CCOCC1` [Compound 5, 2-(4-chloro-3-(morpholine-4-carbonyl)phenyl)isothiazolo[5,4-b]pyridin-3(2H)-one], the inhibition at 3 µM in test [1] came out at 99%. Moreover, the negative-log Kd (pKd) was 5.13 in test [2], 6.79 in test [3] (setting [6]), 5.65 in test [3] (setting [8]) and 5.82 in test [4].

For `O=C(c1ccc(-n2sc3ncccc3c2=O)cc1)N1CCCC1` [Compound 9, 2-(4-(pyrrolidine-1-carbonyl)phenyl)isothiazolo[5,4-b]pyridin-3(2H)-one], in test [1], the inhibition at 3 µM turned out to be 38%. In addition, the pKd in test [2] was 7.40.

With `CC1(C)CN(C(=O)c2cc(-n3sc4ncccc4c3=O)ccc2Cl)CCO1` [Compound 11, 2-(4-chloro-3-(2,2-dimethylmorpholine-4-carbonyl)phenyl)isothiazolo[5,4-b]pyridin-3(2H)-one], the inhibition at 3 µM in test [1] came out at 89%. The figures for the pKd in test [2], in test [3] (setting [8]) and in test [4] were 6.68, 6.66 and 5.77, respectively.

Take `O=C(c1cccc(-n2sc3ncccc3c2=O)c1)N1CCOCC1` [Compound 10, 2-(3-(morpholine-4-carbonyl)phenyl)isothiazolo[5,4-b]pyridin-3(2H)-one]: in test [1], the inhibition at 3 µM came to 88%. Further, the pKd in test [2] is 6.60.

The inhibition is the drop in the measured response relative to a control, in per cent. Broadly, the pKd is −log10 of the Kd, conventionally taken in molar units.
